Data published in the supplement of paper PMC11451515.

Test system: NOMO1
Test: cell viability relative to DMSO control; higher = less cytotoxic
Details: 48 h
Outline: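 Viability values are per-plate percentages of DMSO wells, with background from cell-free wells. Library compounds in DMSO were pin-dosed, in an 11-point threefold series from 47 μM to 0.79 nM, onto NOMO1 or SEM (500 cells/well) or P12-Ichikawa (1000 cells/well) leukemia cells in 1536-well plates (5 μl). Those cells had been adapted for at least four passages in each medium, and CellTiter-Glo One luminescence was read after 48 h at 37°C.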

[1] = HPLM + 10% dialyzed FBS, 0.000781 µM
[2] = HPLM + 10% dialyzed FBS, 0.00234 µM
[3] = HPLM + 10% dialyzed FBS, 0.00702 µM
[4] = HPLM + 10% dialyzed FBS, 0.0211 µM
[5] = HPLM + 10% dialyzed FBS, 0.0632 µM
[6] = HPLM + 10% dialyzed FBS, 0.19 µM
[7] = HPLM + 10% dialyzed FBS, 0.569 µM
[8] = HPLM + 10% dialyzed FBS, 1.71 µM
[9] = HPLM + 10% dialyzed FBS, 5.12 µM
[10] = HPLM + 10% dialyzed FBS, 15.4 µM
[11] = HPLM + 10% dialyzed FBS, 46.1 µM
[12] = RPMI 5 mM glucose + 10% FBS, 0.000781 µM
[13] = RPMI 5 mM glucose + 10% FBS, 0.00234 µM
[14] = RPMI 5 mM glucose + 10% FBS, 0.00702 µM
[15] = RPMI 5 mM glucose + 10% FBS, 0.0211 µM
[16] = RPMI 5 mM glucose + 10% FBS, 0.0632 µM
[17] = RPMI 5 mM glucose + 10% FBS, 0.19 µM
[18] = RPMI 5 mM glucose + 10% FBS, 0.569 µM
[19] = RPMI 5 mM glucose + 10% FBS, 1.71 µM
[20] = RPMI 5 mM glucose + 10% FBS, 5.12 µM
[21] = RPMI 5 mM glucose + 10% FBS, 15.4 µM
[22] = RPMI 5 mM glucose + 10% FBS, 46.1 µM
[23] = RPMI 5 mM glucose + 10% dialyzed FBS, 0.000781 µM
[24] = RPMI 5 mM glucose + 10% dialyzed FBS, 0.00234 µM
[25] = RPMI 5 mM glucose + 10% dialyzed FBS, 0.00702 µM
[26] = RPMI 5 mM glucose + 10% dialyzed FBS, 0.0211 µM
[27] = RPMI 5 mM glucose + 10% dialyzed FBS, 0.0632 µM
[28] = RPMI 5 mM glucose + 10% dialyzed FBS, 0.19 µM
[29] = RPMI 5 mM glucose + 10% dialyzed FBS, 0.569 µM
[30] = RPMI 5 mM glucose + 10% dialyzed FBS, 1.71 µM
[31] = RPMI 5 mM glucose + 10% dialyzed FBS, 5.12 µM
[32] = RPMI 5 mM glucose + 10% dialyzed FBS, 15.4 µM
[33] = RPMI 5 mM glucose + 10% dialyzed FBS, 46.1 µM

With CN(C)C(=O)c1ccc([S+](=O)([O-])c2ccc(NC(=O)[C@@](C)(O)C(F)(F)F)c(Cl)c2)cc1 the cell viability [1] was 104%, the cell viability [2] was 104% and the cell viability [3] was 114%. It also gave a cell viability [4] of 123%, a cell viability [5] of 95.9% and a cell viability [6] of 128%. For the same compound, the cell viability [7] was 126%, the cell viability [8] was 105% and the cell viability [9] was 91.3%. For the same compound, the cell viability [10] was 33%, the cell viability [11] was 10.2% and the cell viability [12] was 104%. For the same compound, the cell viability [13] was 109%, the cell viability [14] was 102% and the cell viability [15] was 105%. It also gave a cell viability [16] of 114%, a cell viability [17] of 101% and a cell viability [18] of 112%. The cell viability [19] was 99.4%, the cell viability [20] was 105% and the cell viability [21] was 38.7%. It also gave a cell viability [22] of 13.5%, a cell viability [23] of 95.9% and a cell viability [24] of 109%. The cell viability [25] was 116%, the cell viability [26] was 118% and the cell viability [27] was 108%. For the same compound, the cell viability [28] was 104%, the cell viability [29] was 104% and the cell viability [30] was 91.2%. The cell viability [31] was 99.8%, the cell viability [32] was 89.7% and the cell viability [33] was 60.4%.
Compound Oc1ccc(/C=C/c2cc(O)cc(O)c2)cc1 has a cell viability [1] of 108%, a cell viability [2] of 112% and a cell viability [3] of 115%. It also gave a cell viability [4] of 111%, a cell viability [5] of 107% and a cell viability [6] of 114%. The cell viability [7] was 92.4%, the cell viability [8] was 117% and the cell viability [9] was 97.5%. For the same compound, the cell viability [10] was 50.1%, the cell viability [11] was 10.4% and the cell viability [12] was 109%. For the same compound, the cell viability [13] was 98.8%, the cell viability [14] was 111% and the cell viability [15] was 105%. The cell viability [16] was 98%, the cell viability [17] was 102% and the cell viability [18] was 99.8%. The cell viability [19] was 107%, the cell viability [20] was 95.3% and the cell viability [21] was 103%. The cell viability [22] was 15.1%, the cell viability [23] was 89.7% and the cell viability [24] was 106%. For the same compound, the cell viability [25] was 98.1%, the cell viability [26] was 104% and the cell viability [27] was 103%. For the same compound, the cell viability [28] was 105%, the cell viability [29] was 99.2% and the cell viability [30] was 97.4%. For the same compound, the cell viability [31] was 102%, the cell viability [32] was 83.4% and the cell viability [33] was 18.4%.
For Cc1c(Cn2c(C)nc3c(C(=O)O)cc(N4CCOCC4)cc32)cccc1C(F)(F)F, the cell viability [1] was 98.3%, the cell viability [2] was 114% and the cell viability [3] was 121%. It also gave a cell viability [4] of 125%, a cell viability [5] of 115% and a cell viability [6] of 120%. It also gave a cell viability [7] of 106%, a cell viability [8] of 121% and a cell viability [9] of 105%. It also gave a cell viability [10] of 95.8%, a cell viability [11] of 16.3% and a cell viability [12] of 87.2%. The cell viability [13] was 95.4%, the cell viability [14] was 101% and the cell viability [15] was 108%. For the same compound, the cell viability [16] was 103%, the cell viability [17] was 97.1% and the cell viability [18] was 108%. It also gave a cell viability [19] of 116%, a cell viability [20] of 112% and a cell viability [21] of 101%. The cell viability [22] was 75%, the cell viability [23] was 89.2% and the cell viability [24] was 112%. It also gave a cell viability [25] of 105%, a cell viability [26] of 117% and a cell viability [27] of 98.9%. It also gave a cell viability [28] of 101%, a cell viability [29] of 111% and a cell viability [30] of 112%. For the same compound, the cell viability [31] was 96.6%, the cell viability [32] was 102% and the cell viability [33] was 85.8%.
O=C(Nc1cccc(Nc2ncc(Br)c(NCCc3cnc[nH]3)n2)c1)N1CCCC1 gave a cell viability [12] of 113%, a cell viability [13] of 117% and a cell viability [14] of 122%. For the same compound, the cell viability [15] was 112%, the cell viability [16] was 112% and the cell viability [17] was 110%. It also gave a cell viability [18] of 68.7%, a cell viability [19] of 71.1% and a cell viability [20] of 62.8%. For the same compound, the cell viability [21] was 12.4%, the cell viability [22] was 1.13% and the cell viability [23] was 103%. For the same compound, the cell viability [24] was 106%, the cell viability [25] was 107% and the cell viability [26] was 107%. For the same compound, the cell viability [27] was 113%, the cell viability [28] was 95.2% and the cell viability [29] was 92.2%. It also gave a cell viability [30] of 59.6%, a cell viability [31] of 65.2% and a cell viability [32] of 37.1%. For the same compound, the cell viability [33] was 0.0873%.
